Results: article PMC12446476 (Nature Communications, 2025)
≈ marks a conversion by molar mass, not a printed value. Where “and” joins values, the source holds several entries; their conditions need not be identical. Equal entries are not always repeated. Where two headings read alike, the source gives them in different places.

Legend:
[1] = test system: mouse lymphoma L5178Y TK+/− cells; format: cell-based; conditions: positive control, 10 µg/mL
[2] = test system: E. coli WP2 uvrA; experiment: Ames assay, E. coli strain; format: cell-based; conditions: without S9, positive control 500 µg/plate
Procedure: Ames assays were performed using four strains of Salmonella typhimurium (TA1535, TA1537, TA98 and TA100) and a single strain of E. coli (WRP2 uvrA) in the presence and absence of S9 tissue homogenate. Dose levels (µg/plate) up to 4000 were assessed for WP2 uvrA and TA98, 500 for TA1535, 250 for TA1537 and 62.5 for TA100.

[3] = test system: N. gonorrhoeae; experiment: MIC determination, agar dilution (CLSI); format: cell-based, Neisseria gonorrhoeae; conditions: for MIC: Neisseria gonorrhoeae, read-out: Minimum inhibitory concentration; for NgMIC50: screening panel of 14 N. gonorrhoeae isolates
Source text: The 2024 WHO N. gonorrhoeae reference strains were used for quality control. Only whole MIC doubling dilutions are reported. Clinical breakpoints or the epidemiological cutoff (ECOFF, to indicate azithromycin resistance) from EUCAST (v14.0, https://www.eucast.org/clinical_breakpoints) were used to classify isolates as antimicrobial susceptible or resistant. […] Two times the standard inoculum defined by CLSI was used to establish consistent growth in untreated control samples for some strains. In vitro time-kill assays were performed according to CLSI guidelines[65] using Columbia Broth (BD Difco) supplemented with 1% IsoVitaleX Enrichment (BD). Viable bacterial counts were generated by plating 10-fold serially diluted samples on GC agar plates containing 1% IsoVitaleX Enrichment (BD).

[4] = molecular target: T1, recombinant NgFabI protein (Neisseria gonorrhoeae, UniProt A0ACH0F547); experiment: biochemical
T1 sequence (A0ACH0F547 entry or part of it): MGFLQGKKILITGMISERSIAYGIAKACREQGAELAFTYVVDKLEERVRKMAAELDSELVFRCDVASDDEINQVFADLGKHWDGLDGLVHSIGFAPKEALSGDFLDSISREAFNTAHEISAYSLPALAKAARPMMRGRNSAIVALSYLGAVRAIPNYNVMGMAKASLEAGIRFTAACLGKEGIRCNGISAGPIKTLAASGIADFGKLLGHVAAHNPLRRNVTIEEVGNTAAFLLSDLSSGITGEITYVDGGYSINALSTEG
Procedure: FabI activity was monitored by measuring NADH consumption. […] To initiate reactions, 50 µM NADH was added, and absorbance was monitored at 340 nm every 12 s for a total of 40 min using a Spectramax Plus 384 plate reader (Molecular Devices) at a controlled temperature of 30 °C. Data were analysed using the XLfit Microsoft Excel plugin (version 5.5). IC50 values were determined using a logistic sigmoid curve-fitting of the inhibitor dose response curves.

[5] = HepG2 cell viability (CellTiter-Glo); format: cell-based; conditions: human, HepG2 cells, read-out: Cell viability, Mean (n=3)
Procedure: (§1) HepG2 cells (HB-8065; ATCC) cultured in DMEM (Gibco) with 5% fetal bovine serum (heat-inactivated, Sigma-Aldrich) and 1% penicillin-streptomycin (ThermoFisher), were seeded in 96-well plates (3.0 × 10^4 per well) and incubated at 37 °C and 5% CO2. […] Each treatment was assessed in triplicate. Cytotoxicity was determined using CytoTox-ONE^TM Homogenous Membrane Integrity Assay kits (Promega), and cell viability was determined using CellTiter-Glo® Luminescent Cell Viability Assay kits (Promega), each according to the manufacturer’s specifications.

[6] = test system: HepG2 cells; experiment: HepG2 cytotoxicity (CytoTox-ONE membrane integrity); format: cell-based, human; conditions: 24 h
Procedure: as §1

[7] = test system: human lymphocytes; experiment: In vitro micronucleus test; format: cell-based; conditions: for Micronucleated cells: 1000 scored cells
[8] = test system: S. aureus ATCC 29213; experiment: S. aureus neutropenic murine thigh infection model; format: in vivo, mouse; conditions: ICR mice, 100 mg/kg PO, TID, 48h; 100 mg/kg
Procedure: The S. aureus neutropenic murine thigh infection model was performed in accordance with the Guide for Care and Use of Laboratory Animals[75]. Animal rooms were maintained at a temperature range of 20–24 °C and humidity between 30% and 70%, with 12 h light/dark cycles. Female ICR mice (BioLASCO Taiwan Co., Ltd.) were rendered neutropenic via IP injection of cyclophosphamide four days before infection (150 mg/kg) and again one day before infection (100 mg/kg). Animals were anaesthetised with isoflurane (3–5%), then inoculated intramuscularly with S. aureus ATCC 29213 (~1 × 10^5 CFU/mouse). […] Animals were sacrificed via CO2 asphyxiation at either 2 h (baseline), 26 and/or 50 h post-infection. Thigh tissues were harvested and homogenised in 3 mL sterile PBS (pH 7.4). Bacterial burdens were determined by performing 10-fold serial dilutions and plating on nutrient agar plates.

[9] = molecular target: T1, recombinant NgFabI protein; conditions: cited from earlier work
[10] = test system: N. gonorrhoeae; experiment: In vitro selection of mutants with reduced susceptibility; format: cell-based, Neisseria gonorrhoeae
Procedure: N. gonorrhoeae strains were grown overnight on chocolate agar plates, as described above. […] Plates were incubated at 35 ± 2 °C in a humid 5% CO2–enriched atmosphere for 48–72 h.

[11] = screening panel N. gonorrhoeae isolate A
[12] = screening panel N. gonorrhoeae isolate B
[13] = screening panel N. gonorrhoeae isolate C
[14] = screening panel N. gonorrhoeae isolate D
[15] = screening panel N. gonorrhoeae isolate E
[16] = screening panel N. gonorrhoeae isolate F
[17] = screening panel N. gonorrhoeae isolate G
[18] = screening panel N. gonorrhoeae isolate H
[19] = screening panel N. gonorrhoeae isolate I
[20] = screening panel N. gonorrhoeae isolate J
[21] = screening panel N. gonorrhoeae isolate K
[22] = screening panel N. gonorrhoeae isolate L
[23] = screening panel N. gonorrhoeae isolate M
[24] = screening panel N. gonorrhoeae isolate N
[25] = Suppl. Table 4, 3 h treatment, with S9, 32 h sampling, 15 µg/mL
[26] = Suppl. Table 5, 3 h treatment, with S9, 32.5 h sampling, 20 µg/mL
[27] = Suppl. Table 4, 31 h treatment, without S9, 31 h sampling, 0.08 µg/mL
[28] = Suppl. Table 5, 31 h treatment, without S9, 31 h sampling, 0.04 µg/mL

## COS(C)(=O)=O [MMS, Methyl methanesulfonate]
[1]
  Induced mutant frequency: 421.6
  Mutant frequency per 10^6 cells: 490.9
[2]
  Ames bacterial mutation assessment, Mean: 168
  Colony count: 174 and 161 and 169

## Cc1c(CN(C)C(=O)/C=C/c2cnc3c(c2)N[C@H](C)CC(=O)N3)oc2ccccc12 [Compound 2]
[3]; [11]
  MIC: 0.25 µg/mL (≈ 0.618 µM)
[3]; [12]
  MIC: 0.125 µg/mL (≈ 0.309 µM)
[3]; [13]
  MIC: 0.125 µg/mL (≈ 0.309 µM)
[3]; [14]
  MIC: 0.125 µg/mL (≈ 0.309 µM)
[3]; [15]
  MIC: 0.06 µg/mL (≈ 0.148 µM)
[3]; [16]
  MIC: 0.25 µg/mL (≈ 0.618 µM)
[3]; [17]
  MIC: 0.25 µg/mL (≈ 0.618 µM)
[3]; [18]
  MIC: 0.125 µg/mL (≈ 0.309 µM)
[3]; [19]
  MIC: 0.125 µg/mL (≈ 0.309 µM)
[3]; [20]
  MIC: 0.125 µg/mL (≈ 0.309 µM)
[3]; [21]
  MIC: 0.5 µg/mL (≈ 1.24 µM)
[3]; [22]
  MIC: 0.125 µg/mL (≈ 0.309 µM)
[3]; [23]
  MIC: 0.125 µg/mL (≈ 0.309 µM)
[3]; [24]
  MIC: 0.125 µg/mL (≈ 0.309 µM)
[3]
  NgMIC50: 0.125 µg/mL
[4]
  IC50: 2.4 nM

## CN(C)CCCN1c2ccccc2Sc2ccc(Cl)cc21 [chlorpromazine]
[5]; 5 µM
  viability at 24 h, 5 µM: 101%
[5]; 50 µM
  viability at 24 h, 50 µM: 1%
[5]; 250 µM
  viability at 24 h, 250 µM: 0%
[6]; 5 µM
  Cytotoxicity, Mean (n=3): 5%
[6]; 50 µM
  Cytotoxicity, Mean (n=3): 33%
[6]; 250 µM
  Cytotoxicity, Mean (n=3): 29%

## O=P1(N(CCCl)CCCl)NCCCO1 (stereo not drawn) [Cyclophosphamide]
[7]; +S9, treatment 3 h, harvest 32 h, positive control 15 µg/mL (Debio 1453P study)
  Incidence of micronucleated cells: 3.00%
[7]; +S9, treatment 3 h, harvest 32.5 h, positive control 20 µg/mL (Debio 1453 study)
  Incidence of micronucleated cells: 7.15%
[7]; [25]
  Micronucleated cell percentage: 3.00%
  Micronucleated cells: 21 and 39
[7]; [26]
  Micronucleated cell percentage: 7.15%
  Micronucleated cells: 78 and 65

## CC(=O)NC[C@H]1CN(c2ccc(N3CCOCC3)c(F)c2)C(=O)O1 [Linezolid, reference compound]
[8]
  CFU per thigh: 930 CFU per thigh and 510 CFU per thigh and 570 CFU per thigh and 750 CFU per thigh and 720 CFU per thigh
  Log10(CFU/Thigh): 2.968 Log10(CFU/Thigh) and 2.708 Log10(CFU/Thigh) and 2.756 Log10(CFU/Thigh) and 2.875 Log10(CFU/Thigh) and 2.857 Log10(CFU/Thigh)

## Cc1c(CN(C)C(=O)/C=C/c2cnc3c(c2)NCCC(=O)N3)oc2ccccc12 [Compound 1]
[3]; [11]
  MIC: 0.25 µg/mL (≈ 0.64 µM)
[3]; [12]
  MIC: 0.125 µg/mL (≈ 0.32 µM)
[3]; [13]
  MIC: 0.125 µg/mL (≈ 0.32 µM)
[3]; [14]
  MIC: 0.25 µg/mL (≈ 0.64 µM)
[3]; [15]
  MIC: 0.125 µg/mL (≈ 0.32 µM)
[3]; [16]
  MIC: 0.25 µg/mL (≈ 0.64 µM)
[3]; [17]
  MIC: 0.5 µg/mL (≈ 1.28 µM)
[3]; [18]
  MIC: 0.25 µg/mL (≈ 0.64 µM)
[3]; [19]
  MIC: 0.125 µg/mL (≈ 0.32 µM)
[3]; [20]
  MIC: 0.25 µg/mL (≈ 0.64 µM)
[3]; [21]
  MIC: 0.5 µg/mL (≈ 1.28 µM)
[3]; [22]
  MIC: 0.25 µg/mL (≈ 0.64 µM)
[3]; [23]
  MIC: 0.125 µg/mL (≈ 0.32 µM)
[3]; [24]
  MIC: 0.125 µg/mL (≈ 0.32 µM)
[3]
  NgMIC50: 0.25 µg/mL
[4]
  IC50: 6 nM

## Cc1c(CN(C)C(=O)/C=C/c2cnc3c(c2)CCC(=O)N3)oc2ccccc12 [Debio 1452, (E)-N-methyl-N-((3-methylbenzofuran-2-yl)methyl)-3-(7-oxo-5,6,7,8-tetrahydro-1,8-naphthyridin-3-yl)acrylamide, reference compound]
[3]; [15]
  MIC: 0.5 µg/mL (≈ 1.33 µM)
[3]; [16]
  MIC: 2 µg/mL (≈ 5.33 µM)
[3]; [17]
  MIC: 4 µg/mL (≈ 10.7 µM)
[3]; [18]
  MIC: 2 µg/mL (≈ 5.33 µM)
[3]; [19]
  MIC: 1 µg/mL (≈ 2.66 µM)
[3]; [20]
  MIC: 2 µg/mL (≈ 5.33 µM)
[3]; [21]
  MIC: 4 µg/mL (≈ 10.7 µM)
[9]; deduced from Figure 3A of reference 15
  IC50: ~100 nM
[9]; seen by the reviewer in the cited work, read-out: Kiapp
  Ki: 5 nM

## Cc1c(CN(C)C(=O)/C=C/c2cnc3c(c2)N[C@@H](C)CC(=O)N3)oc2ccccc12 [Compound 6]
[3]; [11]
  Minimum inhibitory concentration: 1 µg/mL (≈ 2.47 µM)
[3]; [12]
  Minimum inhibitory concentration: 0.5 µg/mL (≈ 1.24 µM)
[3]; [13]
  Minimum inhibitory concentration: 0.5 µg/mL (≈ 1.24 µM)
[3]; [14]
  Minimum inhibitory concentration: 0.5 µg/mL (≈ 1.24 µM)
[3]; [15]
  Minimum inhibitory concentration: 0.5 µg/mL (≈ 1.24 µM)
[3]; [16]
  Minimum inhibitory concentration: 1 µg/mL (≈ 2.47 µM)
[3]; [17]
  Minimum inhibitory concentration: 1 µg/mL (≈ 2.47 µM)
[3]; [18]
  Minimum inhibitory concentration: 1 µg/mL (≈ 2.47 µM)
[3]; [19]
  Minimum inhibitory concentration: 0.5 µg/mL (≈ 1.24 µM)
[3]; [20]
  Minimum inhibitory concentration: 1 µg/mL (≈ 2.47 µM)
[3]; [21]
  Minimum inhibitory concentration: 2 µg/mL (≈ 4.94 µM)
[3]; [22]
  Minimum inhibitory concentration: 0.5 µg/mL (≈ 1.24 µM)
[3]; [23]
  Minimum inhibitory concentration: 0.5 µg/mL (≈ 1.24 µM)
[3]; [24]
  Minimum inhibitory concentration: 0.5 µg/mL (≈ 1.24 µM)
[4]
  IC50: 14 nM
  fold less potent than its enantiomer compound 2 (NgFabI IC50): 5 fold

## COc1cc2c(c(OC)c1OC)-c1ccc(OC)c(=O)cc1[C@@H](NC(C)=O)CC2 [Colchicine]
[7]; -S9, treatment 31 h, harvest 31 h, positive control 0.04 µg/mL (Debio 1453 study)
  Incidence of micronucleated cells: 1.85%
[7]; -S9, treatment 31 h, harvest 31 h, positive control 0.08 µg/mL (Debio 1453P study)
  Incidence of micronucleated cells: 3.35%
[7]; [27]
  Micronucleated cell percentage: 3.35%
  Micronucleated cells: 33 and 34
[7]; [28]
  Micronucleated cell percentage: 1.85%
  Micronucleated cells: 19 and 18

## O=C(O)c1cn(C2CC2)c2cc(N3CCNCC3)c(F)cc2c1=O [Ciprofloxacin, reference compound]
[10]; 6926, 4x MIC
  Mutants (colonies): 4
[10]; 6926, 8x MIC
  Mutants (colonies): 5
[10]; 6926, 16x MIC
  Mutants (colonies): 1
[10]; ATCC 700825, 4x MIC
  Mutants (colonies): 1
[10]; ATCC 700825, 8x MIC
  Mutants (colonies): 0
[10]; ATCC 700825, 16x MIC
  Mutants (colonies): 0
